Measured values published in EP0043274A2, “Antithrombotic treatment” (priority 1980, dated 1982).
“And” between values parts separate entries of the source, which are not always exact repeats. Equal values may be shown once.

Key:
platelet rich plasma = experiment: Platelet aggregation in platelet rich plasma, ADP stimulus (Example 25); format: cell-based; conditions: plasma first treated with the compound
From the text: Plasma was centrifuged at 1000 r.p.m. (200 g) to prepare a platelet rich plasma. Using adosine diphosphate (ADP) as a stimulous, rapid aggregation of platelets in the plasma was efected. On the other hand, when such plasma is first treatd with (a) tetramethyl ammonium sulfite, (b) tetramethyl ammonium bisulfite, and then (c) tetrabutyl

FIBRINOGEN = molecular target: T1, FIBRINOGEN (Homo sapiens, UniProt P02671+P02675+P02679); experiment: Coagulation factor assay (Biggs): fibrinogen; format: biochemical; conditions: mean of 2 experiments; control 205
T1 construct: from tissue; host or cells: human plasma
T1 sequence (P02671 20-629 limits assumed): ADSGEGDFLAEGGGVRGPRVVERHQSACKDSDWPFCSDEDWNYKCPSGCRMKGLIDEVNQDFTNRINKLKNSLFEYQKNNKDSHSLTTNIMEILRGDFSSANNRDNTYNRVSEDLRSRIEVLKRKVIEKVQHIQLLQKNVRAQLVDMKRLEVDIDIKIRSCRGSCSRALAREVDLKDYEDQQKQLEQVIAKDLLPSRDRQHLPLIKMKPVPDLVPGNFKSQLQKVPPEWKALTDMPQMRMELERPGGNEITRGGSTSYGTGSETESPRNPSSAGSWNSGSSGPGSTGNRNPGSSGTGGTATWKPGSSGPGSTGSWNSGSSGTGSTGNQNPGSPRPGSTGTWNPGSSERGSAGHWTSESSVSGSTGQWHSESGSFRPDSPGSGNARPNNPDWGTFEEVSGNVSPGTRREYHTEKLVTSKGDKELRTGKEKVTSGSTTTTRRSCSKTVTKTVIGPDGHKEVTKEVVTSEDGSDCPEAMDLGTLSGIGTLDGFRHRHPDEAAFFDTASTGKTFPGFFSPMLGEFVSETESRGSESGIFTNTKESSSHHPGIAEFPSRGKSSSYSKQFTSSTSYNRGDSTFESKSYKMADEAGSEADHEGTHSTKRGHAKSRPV
T1 sequence (P02675 31-491): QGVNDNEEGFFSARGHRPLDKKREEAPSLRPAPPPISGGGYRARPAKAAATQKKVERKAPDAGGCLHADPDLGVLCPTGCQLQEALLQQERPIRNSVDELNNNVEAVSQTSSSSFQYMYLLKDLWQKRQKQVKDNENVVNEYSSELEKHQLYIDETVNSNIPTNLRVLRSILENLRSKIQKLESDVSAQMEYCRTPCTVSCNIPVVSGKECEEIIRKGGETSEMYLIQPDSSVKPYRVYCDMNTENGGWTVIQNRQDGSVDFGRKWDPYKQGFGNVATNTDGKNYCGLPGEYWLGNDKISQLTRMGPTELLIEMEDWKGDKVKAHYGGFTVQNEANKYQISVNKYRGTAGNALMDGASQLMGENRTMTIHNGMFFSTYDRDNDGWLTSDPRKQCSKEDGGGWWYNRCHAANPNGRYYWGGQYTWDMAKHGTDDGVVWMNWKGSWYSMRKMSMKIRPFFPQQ
T1 sequence (P02679 27-453): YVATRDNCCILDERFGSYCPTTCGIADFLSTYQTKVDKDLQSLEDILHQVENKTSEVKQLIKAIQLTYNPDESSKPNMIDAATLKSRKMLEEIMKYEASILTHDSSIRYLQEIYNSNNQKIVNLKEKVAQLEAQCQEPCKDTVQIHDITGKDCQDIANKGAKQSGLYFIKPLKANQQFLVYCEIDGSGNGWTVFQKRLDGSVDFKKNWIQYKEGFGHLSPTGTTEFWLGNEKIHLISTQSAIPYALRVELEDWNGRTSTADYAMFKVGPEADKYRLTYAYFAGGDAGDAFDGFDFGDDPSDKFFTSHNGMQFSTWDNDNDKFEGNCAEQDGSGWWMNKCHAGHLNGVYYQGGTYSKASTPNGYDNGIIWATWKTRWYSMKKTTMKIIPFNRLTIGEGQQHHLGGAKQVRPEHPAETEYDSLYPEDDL

human plasma [1] = experiment: Thrombin time (TT) in vitro, standard method; format: biochemical; conditions: U.S.P. grade, control 12.00
Procedure: (§1) The effect of U.S.P. grade sodium bisulfite on blood coagulation factors is evaluated by standard procedures (Biggs) and the results are shown in Table III below.

human plasma [2] = experiment: Blood coagulation evaluation by standard procedures (Biggs), overall result; format: biochemical; conditions: 5 mg/ml
Procedure: as §1
When this procedure is repeated using human plasma,
References for PT, PTT, and assays in vitro of all the coagulation factors can be found in a standard textbook, entitled "Human Blod Coagulation, Haemostatis and Thrombosis", edited by Rosemary Biggs, published by Blackwell Scientific Publications, Oxford, England (2nd edition), pages 670-705, 1976.

RATS = experiment: Rats fed bait containing 0.5% sodium bisulfite; format: in vivo
From the text: Five rats, each in a separate cage, were given a bait containing 0.5 percent by weight of sodium bisulfite. The bait consisted of cracked grains (wheat, corn, millet, and corn meal). The amounts of bait eaten are summarized for an eleven day period.

[3] = test system: human platelet rich plasma; experiment: Platelet aggregation in platelet rich plasma, platelet aggregometer (technique of Born); format: cell-based; conditions: 1 millimole (mM); induced by optimal concentrations of ADP, collogen, epinephrine, and arachidonic acid
From the text: A present preference for purposes of evaluating an - antithrombotic effect is to withdraw samples of blood from a patient undergoing treatment and to measure platelet aggregation. One method is described in the paper by Born in Nature 194, pp. 927-929 (1962), which may be used for this purpose if desired.
That sodium bisulfite is an antiplatelet aggregatory agent is shown by using a platelet aggregometer based on the technique of Born (above cited).
(§2) Platelet rich plasma from rabbit and men was prepared by the centrugation technique referenced in Example 13. Using ADP (adosine diphosphate) as a stimulus rapid aggregation of platelets occurred. […] This procedure is described in the article by Born in Nature, Vol. 194, pgs. 927-929 (1962).
as §2, with “rabbits” for “rabbit”, “diphosphate) arachidonic acid” for “diphosphate)”, “stimulus,” for “stimulus”, “Born,” for “Born in”

FACTOR V = molecular target: T2, FACTOR V (Homo sapiens, UniProt P12259); experiment: Coagulation factor assay (Biggs): Factor V; format: biochemical; conditions: U.S.P. grade, control 75
T2 construct: from tissue; host or cells: human plasma
Procedure: as §1
References for PT, PTT, and assays of all the coagulation factors can be found in a standard textbook, entitled "Human Blood Coagulation, Haemostasis and Thrombosis", edited by Rosemary Biggs, published by Blackwell Scientific Publications, Oxford, England (2nd edition), pages 670-705, 1976.

T2 sequence (P12259 29-2224): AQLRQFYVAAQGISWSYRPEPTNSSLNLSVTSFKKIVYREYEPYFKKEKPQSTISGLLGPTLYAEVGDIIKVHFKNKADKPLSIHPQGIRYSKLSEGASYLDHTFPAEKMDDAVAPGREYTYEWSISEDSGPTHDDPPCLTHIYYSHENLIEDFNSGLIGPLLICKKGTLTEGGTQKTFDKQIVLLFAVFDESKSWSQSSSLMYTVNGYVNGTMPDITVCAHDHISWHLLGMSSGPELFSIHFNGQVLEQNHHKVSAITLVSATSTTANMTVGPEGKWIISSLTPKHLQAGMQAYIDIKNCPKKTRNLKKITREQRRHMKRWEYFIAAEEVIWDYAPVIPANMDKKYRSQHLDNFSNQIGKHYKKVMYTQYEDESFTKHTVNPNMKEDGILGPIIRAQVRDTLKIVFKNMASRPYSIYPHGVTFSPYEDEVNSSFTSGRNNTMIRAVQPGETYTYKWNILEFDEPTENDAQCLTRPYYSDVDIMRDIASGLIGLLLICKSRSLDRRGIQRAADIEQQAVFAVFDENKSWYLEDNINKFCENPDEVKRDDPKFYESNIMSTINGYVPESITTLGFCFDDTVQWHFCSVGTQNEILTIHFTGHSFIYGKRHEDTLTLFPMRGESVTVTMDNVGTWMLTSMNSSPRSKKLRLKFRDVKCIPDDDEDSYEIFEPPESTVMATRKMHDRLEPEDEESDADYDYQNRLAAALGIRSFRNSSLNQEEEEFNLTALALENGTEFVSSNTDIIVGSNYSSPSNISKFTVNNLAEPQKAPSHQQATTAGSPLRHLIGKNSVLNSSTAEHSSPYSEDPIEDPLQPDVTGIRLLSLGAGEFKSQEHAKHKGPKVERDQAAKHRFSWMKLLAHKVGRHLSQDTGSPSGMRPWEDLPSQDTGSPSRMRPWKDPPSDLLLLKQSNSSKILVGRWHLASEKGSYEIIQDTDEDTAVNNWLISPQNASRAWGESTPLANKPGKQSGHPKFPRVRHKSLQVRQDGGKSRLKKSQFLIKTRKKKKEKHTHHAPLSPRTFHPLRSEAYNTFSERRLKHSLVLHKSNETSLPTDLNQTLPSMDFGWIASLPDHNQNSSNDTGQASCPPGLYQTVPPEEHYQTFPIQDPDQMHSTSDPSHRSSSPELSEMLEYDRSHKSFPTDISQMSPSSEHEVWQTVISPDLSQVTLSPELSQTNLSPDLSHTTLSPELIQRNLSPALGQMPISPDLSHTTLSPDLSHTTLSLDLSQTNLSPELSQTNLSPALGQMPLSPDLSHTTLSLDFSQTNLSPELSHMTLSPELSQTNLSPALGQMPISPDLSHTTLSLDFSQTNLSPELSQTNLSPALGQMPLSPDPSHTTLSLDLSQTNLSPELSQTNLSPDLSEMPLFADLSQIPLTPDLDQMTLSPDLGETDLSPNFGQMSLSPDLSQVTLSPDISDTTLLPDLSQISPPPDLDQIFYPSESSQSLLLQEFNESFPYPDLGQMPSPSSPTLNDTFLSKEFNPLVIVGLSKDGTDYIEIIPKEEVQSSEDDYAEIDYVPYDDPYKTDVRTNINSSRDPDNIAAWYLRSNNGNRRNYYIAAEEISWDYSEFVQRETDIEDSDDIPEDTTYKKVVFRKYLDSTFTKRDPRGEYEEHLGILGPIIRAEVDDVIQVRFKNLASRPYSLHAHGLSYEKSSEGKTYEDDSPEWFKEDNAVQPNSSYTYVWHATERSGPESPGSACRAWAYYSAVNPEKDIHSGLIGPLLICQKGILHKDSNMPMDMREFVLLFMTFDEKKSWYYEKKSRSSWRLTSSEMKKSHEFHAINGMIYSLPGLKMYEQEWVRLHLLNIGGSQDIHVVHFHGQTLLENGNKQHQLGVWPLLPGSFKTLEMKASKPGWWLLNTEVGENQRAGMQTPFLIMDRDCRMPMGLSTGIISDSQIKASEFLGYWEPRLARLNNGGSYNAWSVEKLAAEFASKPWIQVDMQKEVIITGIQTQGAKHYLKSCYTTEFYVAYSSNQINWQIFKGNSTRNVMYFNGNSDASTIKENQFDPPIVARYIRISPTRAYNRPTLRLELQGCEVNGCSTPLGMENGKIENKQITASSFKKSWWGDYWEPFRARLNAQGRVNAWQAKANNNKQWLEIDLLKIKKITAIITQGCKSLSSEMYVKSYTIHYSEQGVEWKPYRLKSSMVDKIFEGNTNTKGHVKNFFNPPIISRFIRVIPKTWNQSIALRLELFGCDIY

Molecule | platelet aggregation, adosine diphosphate (ADP) as a stimulous (platelet rich plasma) | Fibrinogen (%) (FIBRINOGEN) | TT (human plasma [1]; 0.01 mg/ml) [s] | TT (human plasma [1]; 0.05 mg/ml) [s] | TT (human plasma [1]; 0.1 mg/ml) [s] | TT (human plasma [1]; 0.5 mg/ml) [s] | TT (human plasma [1]; 1.0 mg/ml) [s] | TT (human plasma [1]; 5.0 mg/ml) [s] | coagulation of human plasma (human plasma [2]) | mortality (RATS; 2 days, rats 1 and 4) | FIRST DAY BLOOD FACTOR PT (RATS; rat 5) | FIRST DAY BLOOD FACTOR PT, increase (RATS; rats 1-3) | platelet aggregation [3] | FACTOR V (%) (FACTOR V; 0.01 mg/ml) | FACTOR V (%) (FACTOR V; 0.05 mg/ml) | FACTOR V (%) (FACTOR V; 0.1 mg/ml) | FACTOR V (%) (FACTOR V; 0.5 mg/ml) | FACTOR V (%) (FACTOR V; 1.0 mg/ml) | FACTOR V (%) (FACTOR V; 5.0 mg/ml)
C[N+](C)(C)C [Tetramethyl-ammonium bisulfite] | inhibited | 170 | – | – | – | – | – | – | – | – | – | – | – | – | – | – | – | – | –
Sodium bisulfite | – | – | 12.07 | 12.10 | 12.00 | 13.97 | 16.08 | 34.3 | completely disrupted | DIED | 27 | 26% increase and 24% increase and 28% increase | abolishes platelet aggregation | 74 | 72 | 80 | 70 | 60 | 54
